Publication PMC6398150 (Journal of Medicinal Chemistry, 2019)

Columns and labels:
Assay type in all cases: biochemical
[1] = biological target: group VIA calcium-independent (iPLA2) (Homo sapiens, UniProt O60733); experiment: Lipidomics LC-MS mixed micelle PLA2 assay, iPLA2; conditions: for IC50: IC50, single phospholipid PAPC
[2] = biological target: T1, group V secreted PLA2 (sPLA2) (Homo sapiens, UniProt P39877); experiment: Lipidomics LC-MS mixed micelle PLA2 assay, sPLA2
T1 sequence (P39877 21-138): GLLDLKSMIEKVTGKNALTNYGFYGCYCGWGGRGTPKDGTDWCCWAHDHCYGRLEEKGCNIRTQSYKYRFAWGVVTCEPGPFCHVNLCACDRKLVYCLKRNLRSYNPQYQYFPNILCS

[3] = biological target: T1, group V secreted PLA2 (sPLA2); experiment: Traditional radioactive assay

Sequence of group VIA calcium-independent (iPLA2) (O60733 whole entry): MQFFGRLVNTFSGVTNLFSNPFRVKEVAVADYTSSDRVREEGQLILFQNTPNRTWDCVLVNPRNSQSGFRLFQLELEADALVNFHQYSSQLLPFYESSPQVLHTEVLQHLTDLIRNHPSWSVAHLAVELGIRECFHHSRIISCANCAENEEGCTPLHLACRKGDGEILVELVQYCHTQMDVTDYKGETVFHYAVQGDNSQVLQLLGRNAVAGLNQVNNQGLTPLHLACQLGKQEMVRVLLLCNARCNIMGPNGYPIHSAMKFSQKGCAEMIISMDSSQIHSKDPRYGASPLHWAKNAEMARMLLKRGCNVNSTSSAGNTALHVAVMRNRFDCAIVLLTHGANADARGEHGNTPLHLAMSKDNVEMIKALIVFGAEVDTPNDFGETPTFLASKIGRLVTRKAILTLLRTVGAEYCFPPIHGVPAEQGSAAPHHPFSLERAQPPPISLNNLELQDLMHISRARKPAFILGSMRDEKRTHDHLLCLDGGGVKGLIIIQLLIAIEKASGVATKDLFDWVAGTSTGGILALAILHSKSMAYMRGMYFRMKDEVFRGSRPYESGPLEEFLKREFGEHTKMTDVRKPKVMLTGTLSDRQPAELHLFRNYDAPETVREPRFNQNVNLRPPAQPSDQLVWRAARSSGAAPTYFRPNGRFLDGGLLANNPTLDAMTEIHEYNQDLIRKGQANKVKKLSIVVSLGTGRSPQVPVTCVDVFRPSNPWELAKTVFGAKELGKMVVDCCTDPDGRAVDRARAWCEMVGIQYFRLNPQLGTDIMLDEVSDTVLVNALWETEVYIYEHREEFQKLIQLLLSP

Row | IC50 ([1]; 16:0 LPC detected, positive ion mode) | IC50 ([1]; free AA detected, negative ion mode) | greater inhibitor potency with PAPC as substrate versus PLPC ([1]; PAPC versus PLPC substrate) | Structure (SMILES) | IC50 ([2]; IC50, single phospholipid PAPC, 16:0 LPC detected, positive ion mode) | IC50 ([2]; IC50, single phospholipid PAPG, 16:0 LPG detected, positive ion mode) | IC50 ([2]; IC50, single phospholipid PAPG, free AA detected, negative ion mode) | XI(50) ([2]; single phospholipid PAPC, free AA detected, negative ion mode) | IC50 [3]
1 | 0.058 µM | 0.034 µM | approximately twofold | CCCCCCCCSCC(=O)C(F)(F)F [OTFP] |  |  |  |  | 
2 |  |  |  | CCc1c(C(=O)C(N)=O)c2c(OCC(=O)O)cccc2n1Cc1ccccc1 [Ly315920] | 0.104 µM | 18 µM | 22 µM | 0.0002 | 0.056 µM
